≈ marks a conversion by molar mass, not a printed value. Where “and” joins values, the source holds several entries; their conditions need not be identical. Equal entries are not always repeated. Structures can show the parent of a compound that is named as a salt. Where two headings read alike, the source gives them in different places.
Columns and labels:
[1] = test system: Staphylococcus aureus ATCC 29213; assay: Antibacterial microdilution broth method (EUCAST); assay type: cell-based
Candida krusei ATCC 6258 = assay: microbe, parasite or virus in culture; assay type: cell-based; details: Pichia kudriavzevii
[2] = test system: Candida tropicalis ATCC 750; assay: microbe, parasite or virus in culture; assay type: cell-based
[3] = test system: Escherichia coli ATCC 25922; assay: Antibacterial microdilution broth method (EUCAST); assay type: cell-based
[4] = test system: Pseudomonas aeruginosa ATCC 27853; assay: Antibacterial microdilution broth method (EUCAST); assay type: cell-based
[5] = test system: Staphylococcus epidermidis ATCC 12228; assay: Antibacterial microdilution broth method (EUCAST); assay type: cell-based
[6] = test system: Trichophyton interdigitale ATCC 9533; assay: microbe, parasite or virus in culture; assay type: cell-based
[7] = biological target: AChE from electric eel (EeAChE) (Electrophorus electricus, UniProt O42275); assay: biochemical; assay type: biochemical
[8] = biological target: BuChE from equine serum (EqBuChE) (Equus caballus, UniProt P81908); assay: biochemical
[9] = test system: Acinetobacter baumannii ATCC 19606; assay: Antibacterial microdilution broth method (EUCAST); assay type: cell-based
[10] = test system: methicillin-resistant Staphylococcus aureus ATCC 43300; assay: Antibacterial microdilution broth method (EUCAST); assay type: cell-based; details: ATCC 43300 / MRSA
[11] = test system: Klebsiella pneumoniae ATCC 10031; details: for MIC KP 24 h: 24 h incubation; for MIC KP 48 h: 48 h incubation
[12] = test system: Candida parapsilosis ATCC 22019; assay: microbe, parasite or virus in culture; assay type: cell-based; details: Lodderomyces parapsilosis
[13] = test system: Enterococcus faecalis ATCC 29212; assay: Antibacterial microdilution broth method (EUCAST); assay type: cell-based
[14] = test system: Candida albicans ATCC 24443; assay: microbe, parasite or virus in culture; assay type: cell-based
[15] = ATCC29213, 24 h, read-out: MIC SA 24 h
[16] = ATCC29213, 48 h, read-out: MIC SA 48 h
[17] = ATCC6258, 24 h, read-out: MIC CK 24 h
[18] = ATCC6258, 48 h, read-out: MIC CK 48 h
[19] = ATCC750, 24 h, read-out: MIC CT 24 h
[20] = ATCC750, 48 h, read-out: MIC CT 48 h
[21] = ATCC25922, 24 h, read-out: MIC EC 24 h
[22] = ATCC25922, 48 h, read-out: MIC EC 48 h
[23] = ATCC27853, 24 h, read-out: MIC PA 24 h
[24] = ATCC27853, 48 h, read-out: MIC PA 48 h
[25] = ATCC12228, 24 h, read-out: MIC SE 24 h
[26] = ATCC12228, 48 h, read-out: MIC SE 48 h
[27] = ATCC9533, 72 h, read-out: MIC TI 72 h
[28] = ATCC9533, 120 h, read-out: MIC TI 120 h
[29] = mean ± SD, n = three independent experiments, ATCh 40 µM, read-out: IC50 AChE
[30] = mean ± SD, n = three independent experiments, BTCh 40 µM, read-out: IC50 BuChE
[31] = ATCC19606, 24 h, read-out: MIC ACI 24 h
[32] = ATCC19606, 48 h, read-out: MIC ACI 48 h
[33] = ATCC22019, 24 h, read-out: MIC CP 24 h
[34] = ATCC22019, 48 h, read-out: MIC CP 48 h
[35] = ATCC29212, 24 h, read-out: MIC EF 24 h
[36] = ATCC29212, 48 h, read-out: MIC EF 48 h
[37] = ATCC24443, 24 h, read-out: MIC CA 24 h
[38] = ATCC24443, 48 h, read-out: MIC CA 48 h

Chain of AChE from electric eel (EeAChE) (O42275 24-633): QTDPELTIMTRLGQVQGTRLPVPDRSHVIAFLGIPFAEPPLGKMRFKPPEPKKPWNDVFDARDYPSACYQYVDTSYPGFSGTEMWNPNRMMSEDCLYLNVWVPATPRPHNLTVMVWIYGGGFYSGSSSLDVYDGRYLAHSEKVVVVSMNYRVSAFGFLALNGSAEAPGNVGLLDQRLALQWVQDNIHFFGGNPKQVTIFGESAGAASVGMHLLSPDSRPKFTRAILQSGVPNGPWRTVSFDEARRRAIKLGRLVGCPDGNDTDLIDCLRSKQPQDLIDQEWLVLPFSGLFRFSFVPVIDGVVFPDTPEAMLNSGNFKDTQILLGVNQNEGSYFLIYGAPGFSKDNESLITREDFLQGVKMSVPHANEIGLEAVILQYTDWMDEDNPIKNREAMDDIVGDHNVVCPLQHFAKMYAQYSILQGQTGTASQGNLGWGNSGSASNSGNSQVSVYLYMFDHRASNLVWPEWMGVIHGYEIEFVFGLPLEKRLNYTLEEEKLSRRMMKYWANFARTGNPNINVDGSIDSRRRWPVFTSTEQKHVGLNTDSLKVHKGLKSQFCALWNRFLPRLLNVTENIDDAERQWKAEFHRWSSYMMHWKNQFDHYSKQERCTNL
Chain of BuChE from equine serum (EqBuChE) (P81908 whole entry): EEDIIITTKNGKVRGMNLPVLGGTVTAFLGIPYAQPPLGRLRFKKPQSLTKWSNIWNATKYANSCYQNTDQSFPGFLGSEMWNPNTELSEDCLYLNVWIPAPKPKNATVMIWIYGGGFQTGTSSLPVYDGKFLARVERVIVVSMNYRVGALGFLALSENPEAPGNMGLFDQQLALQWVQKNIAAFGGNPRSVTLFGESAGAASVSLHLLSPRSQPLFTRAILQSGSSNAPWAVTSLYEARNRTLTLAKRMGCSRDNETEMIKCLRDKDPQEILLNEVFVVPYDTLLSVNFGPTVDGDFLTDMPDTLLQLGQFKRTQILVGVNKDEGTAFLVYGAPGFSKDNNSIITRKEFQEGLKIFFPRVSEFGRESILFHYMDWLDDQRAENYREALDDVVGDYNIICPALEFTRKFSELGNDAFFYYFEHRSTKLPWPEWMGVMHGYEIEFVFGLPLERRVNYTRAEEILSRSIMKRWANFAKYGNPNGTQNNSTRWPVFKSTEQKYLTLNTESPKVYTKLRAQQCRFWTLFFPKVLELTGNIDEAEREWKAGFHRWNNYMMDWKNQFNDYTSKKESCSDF

Row | Compound | MIC [1, 15] [µM] | MIC [1, 16] [µM] | MIC [3, 21] [µM] | MIC [3, 22] [µM] | MIC [4, 23] [µM] | MIC [4, 24] [µM] | MIC [5, 25] [µM] | MIC [5, 26] [µM] | Selectivity AChE/BuChE [7] | IC50 [7, 29] [µM] | IC50 [8, 30] | MIC [9, 31] [µM] | MIC [9, 32] [µM] | MIC ([10]; 24 h, read-out: MIC MRSA 24 h) [µM] | MIC ([10]; 48 h, read-out: MIC MRSA 48 h) [µM] | MIC KP 24 h [11] [µM] | MIC KP 48 h [11] [µM] | MIC [13, 35] [µM] | MIC [13, 36] [µM] | also measured
1 | [H]/N=C(\N)NN=Cc1ccc([N+](=O)[O-])s1 [Compound 1o, (E)-2-[(5-Nitrothiophen-2-yl)methylene]hydrazine-1-carboximidamide] | 125 (≈ 26.7 µg/mL) | 250 (≈ 53.3 µg/mL) | 62.5 (≈ 13.3 µg/mL) | 62.5 (≈ 13.3 µg/mL) | 500 (≈ 107 µg/mL) | 500 (≈ 107 µg/mL) | 62.5 (≈ 13.3 µg/mL) | 62.5 (≈ 13.3 µg/mL) | 0.11 | 31.7 ± 1.34 | 204 to 286 µM and 286 µM | 125 (≈ 26.7 µg/mL) | 125 (≈ 26.7 µg/mL) | 125 (≈ 26.7 µg/mL) | 250 (≈ 53.3 µg/mL) | 125 (≈ 26.7 µg/mL) | 125 (≈ 26.7 µg/mL) | 250 (≈ 53.3 µg/mL) | 500 (≈ 107 µg/mL) | MIC (Candida krusei ATCC 6258; [17]): 500 µM (≈ 107 µg/mL); MIC (Candida krusei ATCC 6258; [18]): 500 µM (≈ 107 µg/mL); MIC [2, 19]: > 500 µM; MIC [2, 20]: > 500 µM; MIC [6, 27]: 250 µM (≈ 53.3 µg/mL); MIC [6, 28]: 250 µM (≈ 53.3 µg/mL); MIC [12, 33]: > 500 µM; MIC [12, 34]: > 500 µM; MIC [14, 37]: > 500 µM; MIC [14, 38]: > 500 µM
2 | [H]/N=C(\N)NN=Cc1cc(Cl)cc(I)c1O [Compound 1l, (E)-2-(5-Chloro-2-hydroxy-3-iodobenzylidene)hydrazine-1-carboximidamide] | 500 (≈ 169 µg/mL) | 500 (≈ 169 µg/mL) | 250 (≈ 84.6 µg/mL) | 250 (≈ 84.6 µg/mL) | > 500 | > 500 | 250 (≈ 84.6 µg/mL) | 250 (≈ 84.6 µg/mL) | 4.08 | 22.1 ± 0.55 | < 20 µM and 5.42 µM | 500 (≈ 169 µg/mL) | 500 (≈ 169 µg/mL) | 250 (≈ 84.6 µg/mL) | 250 (≈ 84.6 µg/mL) | 250 (≈ 84.6 µg/mL) | 250 (≈ 84.6 µg/mL) | 250 (≈ 84.6 µg/mL) | 250 (≈ 84.6 µg/mL) | MIC (Candida krusei ATCC 6258; [17]): 500 µM (≈ 169 µg/mL); MIC (Candida krusei ATCC 6258; [18]): 500 µM (≈ 169 µg/mL); MIC [2, 19]: 500 µM (≈ 169 µg/mL); MIC [2, 20]: 500 µM (≈ 169 µg/mL); MIC [6, 27]: 125 µM (≈ 42.3 µg/mL); MIC [6, 28]: 125 µM (≈ 42.3 µg/mL); MIC [12, 33]: 500 µM (≈ 169 µg/mL); MIC [12, 34]: 500 µM (≈ 169 µg/mL); MIC [14, 37]: > 500 µM; MIC [14, 38]: > 500 µM
3 | N=C(N/N=C/c1ccc([N+](=O)[O-])o1)N/N=C/c1ccc([N+](=O)[O-])o1 [Compound 3c, (E)-2-[(5-Nitrofuran-2-yl)methylene]-N’-[(E)-(5-nitrofuran-2-yl)methylene]hydrazine-1-carboximidamide hydrochloride] |  |  |  |  |  |  |  |  | <0.08 |  |  |  |  |  |  |  |  |  |  | IC50 [7]: 40 ± 2.56 µM; IC50 ([8]; IC50 BuChE): > 500 µM
4 | [H]/N=C(\N)NN=Cc1cc(Cl)ccc1O [Compound 1g, (E)-2-(5-Chloro-2-hydroxybenzylidene)hydrazine-1-carboximidamide] | 250 (≈ 53.2 µg/mL) | 250 (≈ 53.2 µg/mL) | 500 (≈ 106 µg/mL) | 500 (≈ 106 µg/mL) | 500 (≈ 106 µg/mL) | 500 (≈ 106 µg/mL) | 62.5 (≈ 13.3 µg/mL) | 62.5 (≈ 13.3 µg/mL) | 0.83 | 37.4 ± 0.73 | 45.2 ± 0.86 µM | 500 (≈ 106 µg/mL) | 500 (≈ 106 µg/mL) | 500 (≈ 106 µg/mL) | 500 (≈ 106 µg/mL) | 500 (≈ 106 µg/mL) | 500 (≈ 106 µg/mL) | 125 (≈ 26.6 µg/mL) | 250 (≈ 53.2 µg/mL) | 
5 | [H]/N=C(\N)NN=Cc1ccco1 [Compound 3a, (E)-2-(Furan-2-ylmethylene)hydrazine-1-carboximidamide] |  |  |  |  |  |  |  |  | 0.50 | 41.1 ± 0.54 | 82.3 ± 3.02 µM |  |  |  |  |  |  |  |  | 
6 | OC(Cn1cncn1)(Cn1cncn1)c1ccc(F)cc1F [FLU, fluconazole, reference compound] |  |  |  |  |  |  |  |  |  |  |  |  |  |  |  |  |  |  |  | IC50 (Candida krusei ATCC 6258; ATCC6258, 24 h, read-out: IC50 (50% growth inhibition) CK 24 h): > 104 µM; IC50 (Candida krusei ATCC 6258; ATCC6258, 48 h, read-out: IC50 (50% growth inhibition) CK 48 h): > 104 µM; IC50 ([2]; ATCC750, 24 h, read-out: IC50 (50% growth inhibition) CT 24 h): 6.5 µM; IC50 ([2]; ATCC750, 48 h, read-out: IC50 (50% growth inhibition) CT 48 h): 6.5 µM; IC50 ([6]; ATCC9533, 72 h, read-out: IC50 (50% growth inhibition) TI 72 h): 52.2 µM; IC50 ([6]; ATCC9533, 120 h, read-out: IC50 (50% growth inhibition) TI 120 h): 52.2 µM; IC50 ([12]; ATCC22019, 24 h, read-out: IC50 (50% growth inhibition) CP 24 h): 3.3 µM; IC50 ([12]; ATCC22019, 48 h, read-out: IC50 (50% growth inhibition) CP 48 h): 3.3 µM; IC50 ([14]; ATCC24443, 24 h, read-out: IC50 (50% growth inhibition) CA 24 h): 6.5 µM; IC50 ([14]; ATCC24443, 48 h, read-out: IC50 (50% growth inhibition) CA 48 h): 6.5 µM
7 | [H]/N=C(\N)NN=Cc1ccc(Cl)cc1O [Compound 1f, (E)-2-(4-Chloro-2-hydroxybenzylidene)hydrazine-1-carboximidamide] | 500 (≈ 106 µg/mL) | 500 (≈ 106 µg/mL) | 500 (≈ 106 µg/mL) | 500 (≈ 106 µg/mL) | 500 (≈ 106 µg/mL) | 500 (≈ 106 µg/mL) | 125 (≈ 26.6 µg/mL) | 125 (≈ 26.6 µg/mL) | 1.40 | 42.8 ± 1.33 | 30.6 ± 1.51 µM | 500 (≈ 106 µg/mL) | 500 (≈ 106 µg/mL) | 500 (≈ 106 µg/mL) | 500 (≈ 106 µg/mL) | 500 (≈ 106 µg/mL) | 500 (≈ 106 µg/mL) | 500 (≈ 106 µg/mL) | 500 (≈ 106 µg/mL) | 
8 | [H]/N=C(\N)NN=Cc1c(O)cccc1Cl [Compound 1h, (E)-2-(6-Chloro-2-hydroxybenzylidene)hydrazine-1-carboximidamide] | 250 (≈ 53.2 µg/mL) | 500 (≈ 106 µg/mL) | > 500 | > 500 | > 500 | > 500 | 125 (≈ 26.6 µg/mL) | 250 (≈ 53.2 µg/mL) | 0.47 | 29.5 ± 0.93 | 62.3 ± 1.08 µM | 500 (≈ 106 µg/mL) | 500 (≈ 106 µg/mL) | > 500 | > 500 | >500 | >500 | > 500 | > 500 | 
9 | NC(=O)N/N=C/c1ccc([N+](=O)[O-])o1 [Compound 3d, (E)-2-[(5-Nitrofuran-2-yl)methylene]hydrazine-1-carboxamide] | 62.5 (≈ 12.4 µg/mL) | 125 (≈ 24.8 µg/mL) | 125 (≈ 24.8 µg/mL) | 250 (≈ 49.5 µg/mL) | > 500 | > 500 | 31.2 (≈ 6.19 µg/mL) | 62.5 (≈ 12.4 µg/mL) | <0.07 | 36.6 ± 0.69 | > 500 µM | > 500 | > 500 | 62.5 (≈ 12.4 µg/mL) | 125 (≈ 24.8 µg/mL) | 62.5 (≈ 12.4 µg/mL) | 125 (≈ 24.8 µg/mL) | 500 (≈ 99.1 µg/mL) | 500 (≈ 99.1 µg/mL) | 
10 | [H]/N=C(\N)NN=Cc1cccc(Cl)c1 [Compound 1c, (E)-2-(3-Chlorobenzylidene)hydrazine-1-carboximidamide] |  |  |  |  |  |  |  |  | 1.06 |  | 41.5 ± 3.06 µM |  |  |  |  |  |  |  |  | IC50 [7]: 43.9 ± 0.76 µM
11 | CCN1CCN(C(=O)N[C@@H](C(=O)N[C@@H]2C(=O)N3[C@@H]2SC(C)(C)[C@@H]3C(=O)O)c2ccccc2)C(=O)C1=O [PIP, piperacillin sodium salt, reference compound] | 1.85 | 1.85 | 7.41 | 7.41 | 14.8 | 14.8 | > 59.3 | > 59.3 |  |  |  | > 59.3 | > 59.3 | 14.8 | 14.8 | >59.31 | >59.31 | 1.85 | 1.85 | 

Reference: paper PMC8704707 (Pharmaceuticals, 2021)
